In US12351556B2, “Pyridin-2(1H)one derivatives, their preparation and their use for the treatment of pain” (INSTITUT NATIONAL DE LA SANTE ET DE LA RECHERCHE MEDICALE …, priority 2019, dated 2025):
Entries after “also recorded” stand apart in the source; their conditions may differ.

Tests used:
[1] = tested on: panel of 13 protein kinases; assay: ICKP screening, whole panel of 13 protein kinases; assay type: biochemical, human; conditions: 1 μM
Description: FIG. 4 illustrates the studies carried out for compounds 67 and 69. Compounds 67 and 69 (FIG. 4B) were evaluated at the International Center For Kinase Profiling (ICKP, Dundee, Scotland) toward a panel of 13 protein kinases. The results (FIG. 4A) were expressed as the mean percentage of residual activity at 1 μM concentration (duplicate assays). Small disks: ≥90%, larger disk: 59%, for both compounds. The tree was generated using the Kinome Render software, and the illustration reproduced courtesy of Cell Signaling Technology, Inc. (www.cellsignal.com) Chartier et al PeerJ 2013, 1:e126.
(§1) Results are expressed as the mean percentage of residual activity at 10 μM (Table 3) or 1 μM (Table 4). They are illustrated on FIGS. 3 and 4.
The selectivity of compound 69 was evaluated at 1 μM toward another panel containing all four p38 MAPK isoforms, ERK1, ERK2 as well as other protein kinases close to p38α MAPK in the kinome phylogenetic tree (FIG. 4, Table 4). […] Its IC50 toward p38α MAPK was determined, showing a value in the micromolar range (IC50=3.0±0.1 μM).

[2] = molecular target: MARK3 (Homo sapiens (Human), UniProt P27448); assay: ICKP protein kinase panel screening; assay type: biochemical; conditions: duplicate assays, read-out: mean % residual activity
Description: (§2) FIG. 3 illustrates the human kinome. Compound 69 was evaluated at the International Center For Kinase Profiling (ICKP, Dundee, Scotland) toward a panel of 50 protein kinases that provide a representative sampling of the human kinome. The results were expressed as the mean percentage of residual activity at 10 μM concentration (duplicate assays). Small disks: ≥65%, larger disk: 19%. The black square indicates the kinome region containing protein kinases evaluated in a second screening (FIG. 4, Table 4). The tree was generated using the Kinome Render software, and the illustration reproduced courtesy of Cell Signaling Technology, Inc. (www.cellsignal.com) Chartier et al PeerJ 2013, 1:e126.
as §1
(§3) Studies were undertaken to identify the possible biological target(s) of compound 69. The activation in neurons of PK such as PKCγ, ERK or p38 MAPK can contribute to pain hypersensitivity. Therefore, it was decided to screen compound 69 toward a panel of 50 PKs that provide a representative sampling of the human kinome (FIG. 3, Table 3) (Biochem. J. 2007, 408, 297-315). In this panel, p38α MAPK was identified as the privileged target, with 19% of kinase residual activity at 10 μM compound concentration.

[3] = molecular target: IGF-1R (Homo sapiens (Human), UniProt P08069); assay: ICKP protein kinase panel screening; assay type: biochemical; conditions: duplicate assays, read-out: mean % residual activity
Description: as §2, §1, §3

[4] = molecular target: PRK2 (Homo sapiens (Human), UniProt Q16513); assay: ICKP protein kinase panel screening; assay type: biochemical; conditions: duplicate assays, read-out: mean % residual activity
Description: as §2, §1, §3

[5] = molecular target: JAK3 (Homo sapiens (Human), UniProt P52333); assay: ICKP protein kinase panel screening; assay type: biochemical; conditions: duplicate assays, read-out: mean % residual activity
Description: as §2, §1, §3

[6] = molecular target: PKA (Homo sapiens (Human), UniProt P17612); assay: ICKP protein kinase panel screening; assay type: biochemical; conditions: duplicate assays, read-out: mean % residual activity
Description: as §2, §1, §3

[7] = molecular target: MSK1 (Homo sapiens (Human), UniProt O75582); assay: ICKP protein kinase panel screening; assay type: biochemical; conditions: duplicate assays, read-out: mean % residual activity
Description: as §2, §1, §3

[8] = molecular target: TrkA (Homo sapiens (Human), UniProt P04629); assay: ICKP protein kinase panel screening; assay type: biochemical; conditions: duplicate assays, read-out: mean % residual activity
Description: as §2, §1, §3

[9] = molecular target: RSK1 (Homo sapiens (Human), UniProt Q15418); assay: ICKP protein kinase panel screening; assay type: biochemical; conditions: duplicate assays, read-out: mean % residual activity
Description: as §2, §1, §3

[10] = molecular target: Src (Homo sapiens (Human), UniProt P12931); assay: ICKP protein kinase panel screening; assay type: biochemical; conditions: duplicate assays, read-out: mean % residual activity
Description: as §2, §1, §3

[11] = molecular target: Aurora B (Homo sapiens (Human), UniProt Q96GD4); assay: ICKP protein kinase panel screening; assay type: biochemical; conditions: duplicate assays, read-out: mean % residual activity
Description: as §2, §1, §3

[12] = molecular target: PIM1 (Homo sapiens (Human), UniProt P11309); assay: ICKP protein kinase panel screening; assay type: biochemical; conditions: duplicate assays, read-out: mean % residual activity
Description: as §2, §1, §3

[13] = molecular target: CAMKKb (Homo sapiens (Human), UniProt Q96RR4); assay: ICKP protein kinase panel screening; assay type: biochemical; conditions: duplicate assays, read-out: mean % residual activity
Description: as §2, §1, §3

[14] = molecular target: TAK1 (Homo sapiens (Human), UniProt O43318); assay: ICKP protein kinase panel screening; assay type: biochemical; conditions: duplicate assays, read-out: mean % residual activity
Description: as §2, §1, §3

[15] = molecular target: PKBa (Homo sapiens (Human), UniProt P31749); assay: ICKP protein kinase panel screening; assay type: biochemical; conditions: duplicate assays, read-out: mean % residual activity
Description: as §2, §1, §3

[16] = molecular target: RIPK2 (Homo sapiens (Human), UniProt O43353); assay: ICKP protein kinase panel screening; assay type: biochemical; conditions: duplicate assays, read-out: mean % residual activity
Description: as §2, §1, §3

[17] = molecular target: SRPK1 (Homo sapiens (Human), UniProt Q96SB4); assay: ICKP protein kinase panel screening; assay type: biochemical; conditions: duplicate assays, read-out: mean % residual activity
Description: as §2, §1, §3

[18] = molecular target: CHK2 (Homo sapiens (Human), UniProt O96017); assay: ICKP protein kinase panel screening; assay type: biochemical; conditions: duplicate assays, read-out: mean % residual activity
Description: as §2, §1, §3

[19] = molecular target: IRAK4 (Homo sapiens (Human), UniProt Q9NWZ3); assay: ICKP protein kinase panel screening; assay type: biochemical; conditions: duplicate assays, read-out: mean % residual activity
Description: as §2, §1, §3

[20] = molecular target: TTK (Homo sapiens (Human), UniProt P33981); assay: ICKP protein kinase panel screening; assay type: biochemical; conditions: duplicate assays, read-out: mean % residual activity
Description: as §2, §1, §3

[21] = molecular target: MKK1 (Homo sapiens (Human), UniProt Q02750); assay: ICKP protein kinase panel screening; assay type: biochemical; conditions: duplicate assays, read-out: mean % residual activity
Description: as §2, §1, §3

[22] = molecular target: DYRK1A (Homo sapiens (Human), UniProt Q13627); assay: ICKP protein kinase panel screening; assay type: biochemical; conditions: duplicate assays, read-out: mean % residual activity
Description: as §2, §1, §3

[23] = molecular target: PLK1 (Homo sapiens (Human), UniProt P53350); assay: ICKP protein kinase panel screening; assay type: biochemical; conditions: duplicate assays, read-out: mean % residual activity
Description: as §2, §1, §3

[24] = molecular target: SmMLCK (Homo sapiens (Human), UniProt Q15746); assay: ICKP protein kinase panel screening; assay type: biochemical; conditions: duplicate assays, read-out: mean % residual activity
Description: as §2, §1, §3

[25] = molecular target: PKD1 (Homo sapiens (Human), UniProt Q15139); assay: ICKP protein kinase panel screening; assay type: biochemical; conditions: duplicate assays, read-out: mean % residual activity
Description: as §2, §1, §3

[26] = molecular target: MST2 (Homo sapiens (Human), UniProt Q13188); assay: ICKP protein kinase panel screening; assay type: biochemical; conditions: duplicate assays, read-out: mean % residual activity
Description: as §2, §1, §3

[27] = molecular target: PAK4 (Homo sapiens (Human), UniProt O96013); assay: ICKP protein kinase panel screening; assay type: biochemical; conditions: duplicate assays, read-out: mean % residual activity
Description: as §2, §1, §3

[28] = molecular target: PKCa (Homo sapiens (Human), UniProt P17252); assay: ICKP protein kinase panel screening; assay type: biochemical; conditions: duplicate assays, read-out: mean % residual activity
Description: as §2, §1, §3

[29] = molecular target: PDK1 (Homo sapiens (Human), UniProt O15530); assay: ICKP protein kinase panel screening; assay type: biochemical; conditions: duplicate assays, read-out: mean % residual activity
Description: as §2, §1, §3

CHK2, sequence (O96017 whole entry): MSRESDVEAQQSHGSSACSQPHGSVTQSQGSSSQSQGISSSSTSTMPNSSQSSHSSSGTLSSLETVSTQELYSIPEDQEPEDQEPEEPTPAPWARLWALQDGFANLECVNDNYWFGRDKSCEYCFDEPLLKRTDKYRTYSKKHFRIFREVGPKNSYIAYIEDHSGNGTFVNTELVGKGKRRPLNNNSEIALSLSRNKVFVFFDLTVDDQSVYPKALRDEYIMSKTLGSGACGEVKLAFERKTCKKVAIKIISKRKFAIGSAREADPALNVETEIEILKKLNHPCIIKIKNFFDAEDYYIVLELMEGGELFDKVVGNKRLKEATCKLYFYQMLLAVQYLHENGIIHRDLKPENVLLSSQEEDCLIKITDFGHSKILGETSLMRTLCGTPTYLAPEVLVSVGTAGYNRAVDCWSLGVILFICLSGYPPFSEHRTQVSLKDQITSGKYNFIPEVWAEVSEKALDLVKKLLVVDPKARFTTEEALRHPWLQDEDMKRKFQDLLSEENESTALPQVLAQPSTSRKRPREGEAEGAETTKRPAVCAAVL
PKD1, sequence (Q15139 whole entry): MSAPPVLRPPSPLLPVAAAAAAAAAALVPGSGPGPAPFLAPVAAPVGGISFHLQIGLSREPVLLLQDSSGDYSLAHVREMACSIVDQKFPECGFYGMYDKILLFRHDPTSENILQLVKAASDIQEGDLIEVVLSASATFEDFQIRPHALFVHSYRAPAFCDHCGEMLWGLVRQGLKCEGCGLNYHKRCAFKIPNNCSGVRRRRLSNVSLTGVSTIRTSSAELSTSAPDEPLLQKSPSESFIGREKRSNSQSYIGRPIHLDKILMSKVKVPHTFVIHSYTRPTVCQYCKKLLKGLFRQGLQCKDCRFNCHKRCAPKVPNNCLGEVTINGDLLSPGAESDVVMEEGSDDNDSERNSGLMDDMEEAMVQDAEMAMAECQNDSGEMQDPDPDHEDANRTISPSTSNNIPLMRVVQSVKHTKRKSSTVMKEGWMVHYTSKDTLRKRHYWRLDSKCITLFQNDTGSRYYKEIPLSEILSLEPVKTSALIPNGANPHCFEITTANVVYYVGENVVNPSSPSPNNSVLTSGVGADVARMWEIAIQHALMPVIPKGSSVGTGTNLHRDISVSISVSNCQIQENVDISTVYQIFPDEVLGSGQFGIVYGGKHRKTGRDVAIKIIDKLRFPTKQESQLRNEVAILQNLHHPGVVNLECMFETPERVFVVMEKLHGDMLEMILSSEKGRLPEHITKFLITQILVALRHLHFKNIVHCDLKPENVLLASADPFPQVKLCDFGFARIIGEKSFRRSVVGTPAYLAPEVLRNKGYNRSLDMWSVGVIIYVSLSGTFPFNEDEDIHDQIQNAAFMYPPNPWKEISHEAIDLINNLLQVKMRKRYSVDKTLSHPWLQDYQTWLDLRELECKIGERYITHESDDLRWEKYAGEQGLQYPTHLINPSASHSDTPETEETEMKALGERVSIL
RIPK2, sequence (O43353 whole entry): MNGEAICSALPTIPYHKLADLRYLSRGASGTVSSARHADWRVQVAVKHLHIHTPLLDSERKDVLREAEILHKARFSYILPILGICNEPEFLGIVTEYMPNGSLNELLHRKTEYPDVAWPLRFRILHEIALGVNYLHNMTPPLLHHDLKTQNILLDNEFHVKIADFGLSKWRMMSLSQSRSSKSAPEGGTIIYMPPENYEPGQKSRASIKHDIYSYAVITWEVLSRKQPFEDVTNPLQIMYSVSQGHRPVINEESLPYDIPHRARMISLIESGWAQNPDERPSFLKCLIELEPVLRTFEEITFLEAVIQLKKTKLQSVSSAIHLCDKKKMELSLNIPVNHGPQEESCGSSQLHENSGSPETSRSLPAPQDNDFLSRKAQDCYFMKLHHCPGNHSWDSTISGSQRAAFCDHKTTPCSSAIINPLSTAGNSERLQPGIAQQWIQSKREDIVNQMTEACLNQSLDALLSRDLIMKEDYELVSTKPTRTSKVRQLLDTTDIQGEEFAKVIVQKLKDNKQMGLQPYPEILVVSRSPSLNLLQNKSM
PIM1, sequence (P11309 whole entry): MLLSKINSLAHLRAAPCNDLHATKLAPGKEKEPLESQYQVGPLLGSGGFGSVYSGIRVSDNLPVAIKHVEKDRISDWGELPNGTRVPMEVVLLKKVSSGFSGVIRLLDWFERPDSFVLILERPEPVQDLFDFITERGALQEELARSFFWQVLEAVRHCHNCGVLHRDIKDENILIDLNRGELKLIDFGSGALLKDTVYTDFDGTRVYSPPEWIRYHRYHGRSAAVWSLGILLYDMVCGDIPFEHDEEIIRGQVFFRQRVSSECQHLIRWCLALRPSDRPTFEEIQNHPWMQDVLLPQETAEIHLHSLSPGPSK
Aurora B, sequence (Q96GD4 whole entry): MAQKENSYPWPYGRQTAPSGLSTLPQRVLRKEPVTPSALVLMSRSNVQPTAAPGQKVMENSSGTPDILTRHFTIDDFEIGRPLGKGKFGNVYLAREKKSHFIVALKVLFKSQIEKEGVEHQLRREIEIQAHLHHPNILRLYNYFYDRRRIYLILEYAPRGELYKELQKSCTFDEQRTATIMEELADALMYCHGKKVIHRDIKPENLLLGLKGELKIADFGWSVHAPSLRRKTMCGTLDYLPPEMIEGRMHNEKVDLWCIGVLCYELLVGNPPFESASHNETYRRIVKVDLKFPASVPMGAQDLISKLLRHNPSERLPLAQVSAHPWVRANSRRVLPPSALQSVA
CAMKKb, sequence (Q96RR4 whole entry): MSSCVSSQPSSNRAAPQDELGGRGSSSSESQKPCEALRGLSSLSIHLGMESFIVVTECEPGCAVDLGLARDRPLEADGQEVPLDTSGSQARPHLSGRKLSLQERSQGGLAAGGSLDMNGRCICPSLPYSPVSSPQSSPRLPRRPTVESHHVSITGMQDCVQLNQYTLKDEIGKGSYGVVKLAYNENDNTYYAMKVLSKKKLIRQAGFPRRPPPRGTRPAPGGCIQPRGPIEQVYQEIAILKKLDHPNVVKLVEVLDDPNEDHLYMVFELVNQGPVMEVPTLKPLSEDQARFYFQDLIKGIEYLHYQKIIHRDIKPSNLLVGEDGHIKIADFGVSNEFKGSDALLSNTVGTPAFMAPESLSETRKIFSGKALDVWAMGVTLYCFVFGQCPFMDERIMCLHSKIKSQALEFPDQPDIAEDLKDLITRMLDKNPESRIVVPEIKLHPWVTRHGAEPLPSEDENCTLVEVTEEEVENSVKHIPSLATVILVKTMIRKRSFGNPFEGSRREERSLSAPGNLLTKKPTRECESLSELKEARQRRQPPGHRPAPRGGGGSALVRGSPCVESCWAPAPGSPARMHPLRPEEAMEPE
TAK1, sequence (O43318 1-303): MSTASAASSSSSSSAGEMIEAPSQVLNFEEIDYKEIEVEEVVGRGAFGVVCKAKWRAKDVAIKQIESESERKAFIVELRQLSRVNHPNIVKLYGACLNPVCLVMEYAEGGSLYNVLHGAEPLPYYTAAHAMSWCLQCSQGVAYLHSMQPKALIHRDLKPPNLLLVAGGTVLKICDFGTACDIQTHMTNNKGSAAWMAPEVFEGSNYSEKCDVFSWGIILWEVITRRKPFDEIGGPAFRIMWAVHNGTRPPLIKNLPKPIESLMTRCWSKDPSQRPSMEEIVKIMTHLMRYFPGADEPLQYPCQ
TAK1, sequence (Q15750 437-504 partner): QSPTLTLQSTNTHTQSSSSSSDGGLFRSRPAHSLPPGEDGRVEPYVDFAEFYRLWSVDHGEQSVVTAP
MARK3, sequence (P27448 whole entry): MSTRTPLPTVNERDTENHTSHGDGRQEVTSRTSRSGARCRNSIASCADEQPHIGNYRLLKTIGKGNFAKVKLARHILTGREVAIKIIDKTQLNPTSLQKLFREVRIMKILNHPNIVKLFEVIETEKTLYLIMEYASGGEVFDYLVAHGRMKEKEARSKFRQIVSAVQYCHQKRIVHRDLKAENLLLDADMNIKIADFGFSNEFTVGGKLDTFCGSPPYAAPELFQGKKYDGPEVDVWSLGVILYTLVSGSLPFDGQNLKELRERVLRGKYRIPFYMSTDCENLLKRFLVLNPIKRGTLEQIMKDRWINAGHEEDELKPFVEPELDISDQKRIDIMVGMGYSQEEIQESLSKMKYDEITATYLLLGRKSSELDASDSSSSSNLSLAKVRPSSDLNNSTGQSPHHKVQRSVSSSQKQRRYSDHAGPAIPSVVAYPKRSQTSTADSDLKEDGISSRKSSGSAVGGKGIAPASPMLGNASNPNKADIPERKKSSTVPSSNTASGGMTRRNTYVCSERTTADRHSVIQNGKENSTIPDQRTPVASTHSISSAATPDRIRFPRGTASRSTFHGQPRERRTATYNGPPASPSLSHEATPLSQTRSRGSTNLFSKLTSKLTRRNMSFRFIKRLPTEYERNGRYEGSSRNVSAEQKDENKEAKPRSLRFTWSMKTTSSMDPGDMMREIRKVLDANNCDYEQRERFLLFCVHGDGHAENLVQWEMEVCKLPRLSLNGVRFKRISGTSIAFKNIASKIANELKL
MKK1, sequence (Q02750 whole entry): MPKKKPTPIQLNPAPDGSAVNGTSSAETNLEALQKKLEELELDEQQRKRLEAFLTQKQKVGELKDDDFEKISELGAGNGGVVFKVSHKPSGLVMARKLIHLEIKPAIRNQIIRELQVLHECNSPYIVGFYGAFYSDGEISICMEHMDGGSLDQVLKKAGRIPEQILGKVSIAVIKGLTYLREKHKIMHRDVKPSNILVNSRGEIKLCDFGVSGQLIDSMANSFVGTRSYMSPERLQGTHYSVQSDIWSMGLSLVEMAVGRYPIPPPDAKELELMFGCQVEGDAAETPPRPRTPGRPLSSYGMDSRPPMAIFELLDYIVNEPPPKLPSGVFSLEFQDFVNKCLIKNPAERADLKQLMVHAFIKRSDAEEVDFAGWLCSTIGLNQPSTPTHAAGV

Question: How did the “mean percentage of residual activity, other kinases of the panel (small disks)” value ([1]; all kinases except p38α MAPK) turn out when `O=c1[nH]cc(Nc2ccccc2)cc1-c1ccccc1Br` [Compound 69, 3-(2-Bromophenyl)-5-(phenylamino)pyridin-2(1H)-one] was run?
Answer: ≥ 90%

Question: And the “selectivity for p38α MAPK over the other protein kinases incl. p38 isoforms” value ([1]; panel of 13 kinases)?
Answer: selective of p38α MAPK over the other protein kinases tested in this panel; also recorded: selective p38α MAPK inhibitor

Question: And the remaining activity at 10 µM [2]?
Answer: 102%

Question: And the remaining activity at 10 µM [3]?
Answer: 96%

Question: What about the remaining activity at 10 µM [4] of the same compound?
Answer: 90%

Question: What about the remaining activity at 10 µM [5] of the same compound?
Answer: 107%

Question: What about the remaining activity at 10 µM [6] of the same compound?
Answer: 94%

Question: And the remaining activity at 10 µM [7]?
Answer: 100%

Question: And the remaining activity at 10 µM [8]?
Answer: 88%

Question: What about the remaining activity at 10 µM [9] of the same compound?
Answer: 94%

Question: What about the remaining activity at 10 µM [10] of the same compound?
Answer: 93%

Question: And the remaining activity at 10 µM [11]?
Answer: 77%

Question: What about the remaining activity at 10 µM [12] of the same compound?
Answer: 95%

Question: And the remaining activity at 10 µM [13]?
Answer: 95%

Question: What about the remaining activity at 10 µM [14] of the same compound?
Answer: 68%

Question: What about the remaining activity at 10 µM [15] of the same compound?
Answer: 107%

Question: What about the remaining activity at 10 µM [16] of the same compound?
Answer: 90%

Question: What about the remaining activity at 10 µM [17] of the same compound?
Answer: 81%

Question: And the remaining activity at 10 µM [18]?
Answer: 101%

Question: And the remaining activity at 10 µM [19]?
Answer: 98%

Question: And the remaining activity at 10 µM [20]?
Answer: 81%

Question: What about the remaining activity at 10 µM [21] of the same compound?
Answer: 112%

Question: What about the remaining activity at 10 µM [22] of the same compound?
Answer: 66%

Question: And the remaining activity at 10 µM [23]?
Answer: 113%

Question: And the remaining activity at 10 µM [24]?
Answer: 100%

Question: And the remaining activity at 10 µM [25]?
Answer: 92%

Question: What about the remaining activity at 10 µM [26] of the same compound?
Answer: 91%

Question: What about the remaining activity at 10 µM [27] of the same compound?
Answer: 89%

Question: And the remaining activity at 10 µM [28]?
Answer: 116%

Question: What about the remaining activity at 10 µM [29] of the same compound?
Answer: 103%
